According to US11975072B2, “Pyropheophorbide conjugate and use thereof in the treatment of cancer and as a fluorescent marker” (INSERM (INSTITUT NATIONAL DE LA SANTÉ ET DE LA RECHERCHE …, priority 2017, dated 2024):

Columns and labels:
[1] = in ethanol; cited from earlier work
[2] = Photophysical properties (absorption, fluorescence, singlet oxygen production, lifetimes) in ethanol; format: physicochemical; settings: for ϕF fluorescence quantum yield: ±0.02, reference tetraphenylporphyrin in toluene; for ϕΔ quantum yield (singlet oxygen production): ±0.05, reference Rose Bengal in ethanol; for τF fluorescence lifetime: ±0.1 ns; for τΔ singlet oxygen lifetime: ±1 μs
Protocol: The absorption spectra were measured with a UV-3600 double beam UV-visible spectrophotometer (Shimadzu, Marne La Vallée, France). The fluorescence spectra were measured with a Fluorolog FL3-222 spectrofluorimeter (Horiba Jobin Yvon, Longjumeau, France) equipped with a 450 W xenon arc lamp, with a thermostated (25° C.) cuvette holder compartment, with an R928 UV-visible photomultiplier (Hamamatsu, Japan) and with a liquid nitrogen-cooled InGaAs infrared detector (DSS-16A020L Electro-Optical System Inc, Phoenixville, PA, USA). The excitation beam is diffracted by a SPEX double-grating monochromator (1200 lines/mm blazed at 330 nm). The fluorescence was measured by the UV-visible detector via the SPEX double-grating emission monochromator (1200 lines/mm blazed at 500 nm). The production of singlet oxygen was measured by the infrared detector via the SPEX double-grating emission monochromator (600 lines/mm blazed at 1 μm) and a high-pass filter at 780 nm. All the spectra were measured using 4-face quartz cuvettes. All the emission spectra (singlet-oxygen fluorescence and luminescence) were related back to the same absorbance (less than 0.2) with the lamp and photomultiplier corrections.
The fluorescence quantum yield was determined by equation (1):
[formula] where Φf and Φfo, If and Ifo, OD and ODo, n and no, are the quantum yields, the fluorescence intensities, the optical densities, and the refractive indices of the sample and of the reference respectively.
The reference used for the calculation of the fluorescence quantum yield is tetraphenylporphyrin in toluene with a φfo of 0.11.
The quantum yield for singlet oxygen production is determined by equation (2):
[formula] where ΦΔ and ΦΔo, I and Io, OD and ODo are the quantum yields for singlet oxygen production, the singlet oxygen production intensities and the optical densities of the sample and of the reference respectively.
The reference used for the calculation of the quantum yield for singlet oxygen production is Rose Bengal in ethanol with a φΔo of 0.68.
The fluorescence lifetime experiments were carried out using, for the excitation, a pulsed laser diode emitting at 407 nm (LDH-P-C-400M, FWHM<70 ps, 1 MHz) coupled to a PDL 800-D pulse generator (PicoQuant GmbH, Berlin, Germany) and, for the detection, an SPCM-AQR-15 avalanche photodiode (EG & G, Vaudreuil, Canada) coupled to a high-pass filter at 650 nm.
The acquisition was carried out using a PicoHarp 300 module linked to a PHR-800 4-channel router (PicoQuant GmbH, Berlin, Germany). The fluorescence declines were recorded using the single photon counting method (Time Correlated Single Photon Counting TCSPC). The data were collected until 1000 accumulated counts in a channel were obtained, then analyzed using the TCSPC Fluofit software (PicoQuant GmbH, Berlin, Germany) based on an iterative reconvolution using a Levensberg-Marquandt algorithm which allows multiexponential declines to be obtained.
The singlet oxygen lifetime measurements were carried out with a Tempro-01 spectrophotometer (Horiba Jobin Yvon, Longjumeau, France) composed of a SpectraLED-415 pulsed excitation diode emitting at 415 nm, of a cuvette holder compartment, of an emission monochromator of Seya-Namioka type (600-2000 nm) and of an H10330-45 thermoelectrically regulated near infrared photomultiplier tube (Hamamatsu, Japan). The assembly is controlled by the FluoroHub-B counting module and the DataStation and DAS6 software (Horiba Jobin Yvon).
The emission spectra and the phosphorescence lifetime measurements were carried out with a Fluorolog FL3-22 spectrofluorimeter (Horiba Jobin Yvon, Longjumeau, France) equipped with a 450 W continuous xenon lamp, with a xenon flash lamp, with a thermostated (25° C.) cuvette holder compartment and with an R928 UV-visible photomultiplier (Hamamatsu, Japan). The assembly is controlled by the FluoroHub-B counting module. […]

| εQI (molar extinction coefficient, QI band) [2] | εsoret band (molar extinction coefficient) [2] | λQI (QI band absorption peak) [2] | ϕF fluorescence quantum yield [2] | ϕΔ quantum yield (singlet oxygen production) [2] | τF fluorescence lifetime [2] | τΔ singlet oxygen lifetime [2] | Compound | φΔo quantum yield for singlet oxygen production of the reference [1] |
| --- | --- | --- | --- | --- | --- | --- | --- | --- |
| – | – | – | – | – | – | – | O=C([O-])c1c(Cl)c(Cl)c(Cl)c(Cl)c1-c1c2cc(I)c(=O)c(I)c-2oc2c(I)c([O-])c(I)cc12.[Na+].[Na+] [Rose Bengal] | 0.68 |
| 32 537 L · mol^−1 · cm^−1 | 69 663 L · mol^−1 · cm^−1 | 667 nm | 0.44 | 0.52 | 5.7 ns | 12 μs | pheophorbide-a [Pheo(a)-COOH] | – |
| 33 265 L · mol^−1 · cm^−1 | 76 326 L · mol^−1 · cm^−1 | 668 nm | 0.34 | 0.52 | 6.7 ns | 13 μs | pyropheophorbide-a [Pyro(a)-COOH] | – |
